Experimental data from ChEMBL document CHEMBL1201862, “PubChem BioAssay data set” (2004).
Activity calls are given as the source filed them. Cut-off read from the data, not from the text of the source: actives have a measured IC50 and inactives only a lower limit.

These molecules were tested against Envelope glycoprotein gp160 (Human immunodeficiency virus 1, UniProt Q6QLK5) (assay: cell-free HIV fusion peptide-binding blockers – biochemical, uHTS, fluorescence dequenching, […] (AID 1986)).
Sequence of Envelope glycoprotein gp160 (Q6QLK5 whole entry, the tested form may be a part): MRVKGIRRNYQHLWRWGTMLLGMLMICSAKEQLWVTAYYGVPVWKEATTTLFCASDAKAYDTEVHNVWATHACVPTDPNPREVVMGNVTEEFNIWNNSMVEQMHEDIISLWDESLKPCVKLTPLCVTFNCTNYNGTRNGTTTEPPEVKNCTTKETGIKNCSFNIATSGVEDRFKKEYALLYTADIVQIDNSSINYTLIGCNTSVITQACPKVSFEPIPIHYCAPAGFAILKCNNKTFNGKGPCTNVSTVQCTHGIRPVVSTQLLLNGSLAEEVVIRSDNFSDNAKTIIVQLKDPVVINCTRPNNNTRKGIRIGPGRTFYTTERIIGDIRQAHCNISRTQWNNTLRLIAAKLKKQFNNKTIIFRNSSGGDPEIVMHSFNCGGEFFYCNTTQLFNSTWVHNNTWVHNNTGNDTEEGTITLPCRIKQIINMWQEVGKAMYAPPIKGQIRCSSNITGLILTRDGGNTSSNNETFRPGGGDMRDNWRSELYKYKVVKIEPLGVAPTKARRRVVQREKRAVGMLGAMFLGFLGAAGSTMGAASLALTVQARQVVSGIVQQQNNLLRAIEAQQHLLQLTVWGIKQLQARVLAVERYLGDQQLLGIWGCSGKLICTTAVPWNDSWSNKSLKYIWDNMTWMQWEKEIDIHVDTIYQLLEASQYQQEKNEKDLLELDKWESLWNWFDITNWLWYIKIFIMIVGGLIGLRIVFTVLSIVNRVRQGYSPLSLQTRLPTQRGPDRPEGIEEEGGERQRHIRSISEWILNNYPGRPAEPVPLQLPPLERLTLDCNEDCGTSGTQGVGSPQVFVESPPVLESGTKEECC
In the case of `COc1ccccc1NS(=O)(=O)c1cccc(N2C(=O)/C(=C\Nc3ccccc3C(=O)O)c3ccccc3C2=O)c1`, the IC50 is reported as 13.1 µM (active). In the case of `COc1cc(/C=C2\C(=N)N3N=C(S(C)(=O)=O)SC3=NC2=O)ccc1OCCOc1ccccc1C`, the IC50 is reported as 13.7 µM (active). For `CSc1nnc(-c2ccccc2/N=C/c2c(C)nn(-c3ccc4ccccc4c3)c2O)c(O)n1`, the IC50 was 25.8 µM (active).
